According to patent US8354422B2, “Pyrimidine inhibitors of kinase activity” (Abbott Laboratories Inc., priority 2009, dated 2013):

These compounds were tested against T1, C-terminal GST-tagged, recombinant, human IGF-1R, amino acids 954-1367 (Homo sapiens, UniProt P08069) (assay: IGF-1R kinase activity, homogenous time-resolved fluorescence (HTRF) in vitro kinase assay). Conditions: IGF-1R kinase HTRF assay, ATP 50 μM, biotinylated peptide substrate 0.5 μM, 60 minutes at room temperature.
T1 construct: human IGF-1R, amino acids 954-1367 expressed by baculovirus in Sf21 cells; GST (C); purchased Cell Signaling Technology; host or cells: baculovirus in Sf21 cells
Type: biochemical
Protocol: IGF-1R kinase activity was assayed by a homogenous time-resolved fluorescence (HTRF) in vitro kinase assay (Mathis, G., HTRF(R) Technology. J Biomol Screen, 1999. 4(6): p. 309-314). Specifically, 10 μL C-terminal GST-tagged, recombinant, human IGF-1R, amino acids 954-1367 expressed by baculovirus in Sf21 cells (Cell Singaling Technology) was mixed with 10 μL inhibitor (various concentrations, 2% final DMSO) and 10 μL of ATP (50 μM final concentration) in reaction buffer (50 mM HEPES, pH […], 2 mM MnCl2, 0.1% BSA and 1 mM DTT, 40 μL final volume). The reaction was initiated by addition of 10 μL of biotinylated peptide substrate (Biotin-Ahx-[…], 0.5 μM final concentration) in a black 384-well plate (Packard). After 60 minutes incubation at room temperature, the reaction was quenched by addition of 60 μL stop/revelation buffer to give 30 mM EDTA, 1 μg/mL streptavidin-APC (Prozyme), 50 ng/mL anti-phosphotyrosine mAb PT66-K Europium Cryptate, 30 mM HEPES, pH 7.5, 120 mM KF, 0.005% Tween-20, 0.05% BSA). The quenched reaction was allowed to stand at room temperature for 1 hour and then read in a time-resolved fluorescence detector (Envision, Perkin Elmer) at 615 nm and 665 nm simultaneously. The ratio between the signal of 615 nm and 665 nm was used in the calculation of the IC50.

T1 sequence (P08069 954-1367): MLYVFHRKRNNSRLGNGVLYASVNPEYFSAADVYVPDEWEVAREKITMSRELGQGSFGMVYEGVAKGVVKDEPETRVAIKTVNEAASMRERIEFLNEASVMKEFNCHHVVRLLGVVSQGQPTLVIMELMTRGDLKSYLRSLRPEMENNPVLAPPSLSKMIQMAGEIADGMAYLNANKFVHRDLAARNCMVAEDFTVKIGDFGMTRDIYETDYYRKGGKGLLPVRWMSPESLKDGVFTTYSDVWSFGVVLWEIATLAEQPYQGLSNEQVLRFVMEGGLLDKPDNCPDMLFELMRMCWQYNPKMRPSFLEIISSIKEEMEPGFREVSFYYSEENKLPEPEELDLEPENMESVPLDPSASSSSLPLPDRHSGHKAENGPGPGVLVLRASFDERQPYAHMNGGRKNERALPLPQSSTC

Structure (SMILES)	IC50 [nM]
COc1ccc(S(C)(=O)=O)cc1Nc1nccc(-c2c(-c3ccc(OCc4ccccc4)c(OC)c3)nc3ccccn23)n1 [Example 34, 4-{2-[4-(benzyloxy)-3-methoxyphenyl]imidazo[1,2-a]pyridin-3-yl}-N-[2-methoxy-5-(methylsulfonyl)phenyl]pyrimidin-2-amine]	25 to 100
CS(=O)(=O)c1ccc(Nc2nccc(-c3c(-c4ccc(OCc5ccccc5)cc4)nc4ccccn34)n2)cc1 [Example 6, 4-{2-[4-(benzyloxy)phenyl]imidazo[1,2-a]pyridin-3-yl}-N-[4-(methylsulfonyl)phenyl]pyrimidin-2-amine]	> 1000
COc1ccc(S(C)(=O)=O)cc1Nc1nccc(-c2c(-c3ccc(OCc4ccccc4)cc3)nc3ccccn23)n1 [Example 35, 4-{2-[4-(benzyloxy)phenyl]imidazo[1,2-a]pyridin-3-yl}-N-[2-methoxy-5-(methylsulfonyl)phenyl]pyrimidin-2-amine]	101 to 500
COc1cc(N2CCC(N3CCN(C)CC3)CC2)ccc1Nc1nccc(-c2c(-c3ccc(OCc4ccccc4)cc3)nc3ccccn23)n1 [Example 13, 4-{2-[4-(benzyloxy)phenyl]imidazo[1,2-a]pyridin-3-yl}-N-{2-methoxy-4-[4-(4-methylpiperazin-1-yl)piperidin-1-yl]phenyl}pyrimidin-2-amine]	101 to 500
COc1cc(N2CCOCC2)ccc1Nc1nccc(-c2c(-c3ccc(OCc4ccccc4)c(OC)c3)nc3ccccn23)n1 [Example 39, 4-{2-[4-(benzyloxy)-3-methoxyphenyl]imidazo[1,2-a]pyridin-3-yl}-N-(2-methoxy-4-morpholin-4-ylphenyl)pyrimidin-2-amine]	101 to 500
Cc1cc(OCc2ccccc2)ccc1-c1nc2ccccn2c1-c1ccnc(Nc2cccc(CCN(C)C)c2)n1 [Example 10, 4-{2-[4-(benzyloxy)-2-methylphenyl]imidazo[1,2-a]pyridin-3-yl}-N-{3-[2-(dimethylamino)ethyl]phenyl}pyrimidin-2-amine]	101 to 500
COc1cc(-c2nc3ccccn3c2-c2ccnc(Nc3ccc(N4CCN(CCO)CC4)cc3)n2)ccc1OCc1ccccc1 [Example 44, 2-(4-{4-[(4-{2-[4-(benzyloxy)-3-methoxyphenyl]imidazo[1,2-a]pyridin-3-yl}pyrimidin-2-yl)amino]phenyl}piperazin-1-yl)ethanol]	25 to 100
Cc1cc(Nc2nccc(-c3c(-c4ccc(OCc5ccccc5)cc4)nc4ccccn34)n2)n[nH]1 [Example 14, 4-{2-[4-(benzyloxy)phenyl]imidazo[1,2-a]pyridin-3-yl}-N-(5-methyl-1H-pyrazol-3-yl)pyrimidin-2-amine]	> 1000
COc1cc(-c2nc3ccccn3c2-c2ccnc(Nc3cccc(CCN4CCCC4)c3)n2)ccc1OCc1ccccc1 [Example 24, 4-{2-[4-(benzyloxy)-3-methoxyphenyl]imidazo[1,2-a]pyridin-3-yl}-N-[3-(2-pyrrolidin-1-ylethyl)phenyl]pyrimidin-2-amine]	25 to 100
COc1cc(N(C)C)ccc1Nc1nccc(-c2c(-c3ccc(OCc4ccccc4)c(OC)c3)nc3ccccn23)n1 [Example 42, N^1-(4-{2-[4-(benzyloxy)-3-methoxyphenyl]imidazo[1,2-a]pyridin-3-yl}pyrimidin-2-yl)-2-methoxy-N^4,N^4-dimethylbenzene-1,4-diamine]	101 to 500
Cn1cc(Nc2nccc(-c3c(-c4ccc(OCc5ccccc5)cc4)nc4ccccn34)n2)cn1 [Example 26, 4-{2-[4-(benzyloxy)phenyl]imidazo[1,2-a]pyridin-3-yl}-N-(1-methyl-1H-pyrazol-4-yl)pyrimidin-2-amine]	101 to 500
COc1cc(N2CCOCC2)ccc1Nc1nccc(-c2c(-c3ccc(OCc4ccccc4)cc3)nc3ccccn23)n1 [Example 2, 4-{2-[4-(benzyloxy)phenyl]imidazo[1,2-a]pyridin-3-yl}-N-(2-methoxy-4-morpholin-4-ylphenyl)pyrimidin-2-amine]	101 to 500
CCN(CCO)c1cccc(Nc2nccc(-c3c(-c4ccc(OCc5ccccc5)c(OC)c4)nc4ccccn34)n2)c1 [Example 31, 2-[{3-[(4-{2-[4-(benzyloxy)-3-methoxyphenyl]imidazo[1,2-a]pyridin-3-yl}pyrimidin-2-yl)amino]phenyl}(ethyl)amino]ethanol]	101 to 500

The remaining lines, values ahead:

IC50 [nM]	Structure (SMILES)
25 to 100	COc1cc(N)ccc1Nc1nccc(-c2c(-c3ccc(OCc4ccccc4)c(OC)c3)nc3ccccn23)n1 [Example 46, N^1-(4-{2-[4-(benzyloxy)-3-methoxyphenyl]imidazo[1,2-a]pyridin-3-yl}pyrimidin-2-yl)-2-methoxybenzene-1,4-diamine]
25 to 100	COc1cc(-c2nc3ccccn3c2-c2ccnc(Nc3cnn(CCO)c3)n2)ccc1OCc1ccccc1 [Example 47, 2-{4-[(4-{2-[4-(benzyloxy)-3-methoxyphenyl]imidazo[1,2-a]pyridin-3-yl}pyrimidin-2-yl)amino]-1H-pyrazol-1-yl}ethanol]
25 to 100	COc1cc(N(C)C)ccc1Nc1nccc(-c2c(-c3ccc(OCc4ccccc4)c(OC)c3)nc3sccn23)n1 [Example 81, N^1-(4-{6-[4-(benzyloxy)-3-methoxyphenyl]imidazo[2,1-b][1,3]thiazol-5-yl}pyrimidin-2-yl)-2-methoxy-N^4,N^4-dimethylbenzene-1,4-diamine]
< 25	COc1ccc(N2CCS(=O)(=O)CC2)cc1Nc1nccc(-c2c(-c3ccc(OCc4ccccc4)c(OC)c3)nc3ccccn23)n1 [Example 74, 4-{2-[4-(benzyloxy)-3-methoxyphenyl]imidazo[1,2-a]pyridin-3-yl}-N-[5-(1,1-dioxidothiomorpholin-4-yl)-2-methoxyphenyl]pyrimidin-2-amine]
25 to 100	COc1cc(-c2nc3ccccn3c2-c2ccnc(Nc3cnn(CCN4CCOCC4)c3)n2)ccc1OCc1ccccc1 [Example 55, 4-{2-[4-(benzyloxy)-3-methoxyphenyl]imidazo[1,2-a]pyridin-3-yl}-N-[1-(2-morpholin-4-ylethyl)-1H-pyrazol-4-yl]pyrimidin-2-amine]
< 25	COc1ccc(NC(=O)CN(C)C)cc1Nc1nccc(-c2c(-c3ccc(OCc4ccccc4)c(OC)c3)nc3ccccn23)n1 [Example 71, N^1-{3-[(4-{2-[4-(benzyloxy)-3-methoxyphenyl]imidazo[1,2-a]pyridin-3-yl}pyrimidin-2-yl)amino]-4-methoxyphenyl}-N^2,N^2-dimethylglycinamide]
> 1000	CN(C)CCc1cccc(Nc2nccc(-c3c(-c4ccc(OCc5ccccc5)cc4)nn4cc(F)ccc34)n2)c1 [Example 77, 4-{2-[4-(benzyloxy)phenyl]-6-fluoropyrazolo[1,5-a]pyridin-3-yl}-N-{3-[2-(dimethylamino)ethyl]phenyl}pyrimidin-2-amine]
25 to 100	COc1cc(-c2nc3ccccn3c2-c2ccnc(Nc3cccc(CN4CCC(O)C4)c3)n2)ccc1OCc1ccccc1 (stereo not drawn) [Example 70, 1-{3-[(4-{2-[4-(benzyloxy)-3-methoxyphenyl]imidazo[1,2-a]pyridin-3-yl}pyrimidin-2-yl)amino]benzyl}pyrrolidin-3-ol]
101 to 500	COc1cc(N2CCC(N3CCSCC3)CC2)ccc1Nc1nccc(-c2c(-c3ccc(OCc4ccccc4)c(OC)c3)nc3ccccn23)n1 [Example 56, 4-{2-[4-(benzyloxy)-3-methoxyphenyl]imidazo[1,2-a]pyridin-3-yl}-N-[2-methoxy-4-(4-thiomorpholin-4-ylpiperidin-1-yl)phenyl]pyrimidin-2-amine]
> 1000	CN(C)CCc1cccc(Nc2nccc(-c3c(-c4ccc(OCc5ccccc5)c(C(F)(F)F)c4)nc4ccccn34)n2)c1 [Example 49, 4-{2-[4-(benzyloxy)-3-(trifluoromethyl)phenyl]imidazo[1,2-a]pyridin-3-yl}-N-{3-[2-(dimethylamino)ethyl]phenyl}pyrimidin-2-amine]
25 to 100	COc1cc(-c2nc3ccccn3c2-c2ccnc(Nc3cccc(NC(=O)CN(C)C)c3)n2)ccc1OCc1ccccc1 [Example 66, N^1-{3-[(4-{2-[4-(benzyloxy)-3-methoxyphenyl]imidazo[1,2-a]pyridin-3-yl}pyrimidin-2-yl)amino]phenyl}-N^2,N^2-dimethylglycinamide]
101 to 500	COc1cc(NCC(=O)O)ccc1Nc1nccc(-c2c(-c3ccc(OCc4ccccc4)c(OC)c3)nc3ccccn23)n1 [Example 53, N-{4-[(4-{2-[4-(benzyloxy)-3-methoxyphenyl]imidazo[1,2-a]pyridin-3-yl}pyrimidin-2-yl)amino]-3-methoxyphenyl}glycine]
< 25	COc1cc(C2CCNCC2)ccc1Nc1nccc(-c2c(-c3ccc(OCc4ccccc4)c(OC)c3)nc3ccccn23)n1 [Example 57, 4-{2-[4-(benzyloxy)-3-methoxyphenyl]imidazo[1,2-a]pyridin-3-yl}-N-(2-methoxy-4-piperidin-4-ylphenyl)pyrimidin-2-amine]
501 to 1000	Cc1cc(-c2nc3ccccn3c2-c2ccnc(Nc3cccc(CCN(C)C)c3)n2)ccc1OCc1ccccc1 [Example 68, 4-{2-[4-(benzyloxy)-3-methylphenyl]imidazo[1,2-a]pyridin-3-yl}-N-{3-[2-(dimethylamino)ethyl]phenyl}pyrimidin-2-amine]
